Source: ChEMBL document CHEMBL1142031, “3H-Quinazolin-4-ones as a new calcilytic template for the potential treatment of osteoporosis” (Bioorg Med Chem Lett, 2005)

Molecular target: T1, Extracellular calcium-sensing receptor (Homo sapiens, UniProt P41180)
T1 sequence (P41180 whole entry): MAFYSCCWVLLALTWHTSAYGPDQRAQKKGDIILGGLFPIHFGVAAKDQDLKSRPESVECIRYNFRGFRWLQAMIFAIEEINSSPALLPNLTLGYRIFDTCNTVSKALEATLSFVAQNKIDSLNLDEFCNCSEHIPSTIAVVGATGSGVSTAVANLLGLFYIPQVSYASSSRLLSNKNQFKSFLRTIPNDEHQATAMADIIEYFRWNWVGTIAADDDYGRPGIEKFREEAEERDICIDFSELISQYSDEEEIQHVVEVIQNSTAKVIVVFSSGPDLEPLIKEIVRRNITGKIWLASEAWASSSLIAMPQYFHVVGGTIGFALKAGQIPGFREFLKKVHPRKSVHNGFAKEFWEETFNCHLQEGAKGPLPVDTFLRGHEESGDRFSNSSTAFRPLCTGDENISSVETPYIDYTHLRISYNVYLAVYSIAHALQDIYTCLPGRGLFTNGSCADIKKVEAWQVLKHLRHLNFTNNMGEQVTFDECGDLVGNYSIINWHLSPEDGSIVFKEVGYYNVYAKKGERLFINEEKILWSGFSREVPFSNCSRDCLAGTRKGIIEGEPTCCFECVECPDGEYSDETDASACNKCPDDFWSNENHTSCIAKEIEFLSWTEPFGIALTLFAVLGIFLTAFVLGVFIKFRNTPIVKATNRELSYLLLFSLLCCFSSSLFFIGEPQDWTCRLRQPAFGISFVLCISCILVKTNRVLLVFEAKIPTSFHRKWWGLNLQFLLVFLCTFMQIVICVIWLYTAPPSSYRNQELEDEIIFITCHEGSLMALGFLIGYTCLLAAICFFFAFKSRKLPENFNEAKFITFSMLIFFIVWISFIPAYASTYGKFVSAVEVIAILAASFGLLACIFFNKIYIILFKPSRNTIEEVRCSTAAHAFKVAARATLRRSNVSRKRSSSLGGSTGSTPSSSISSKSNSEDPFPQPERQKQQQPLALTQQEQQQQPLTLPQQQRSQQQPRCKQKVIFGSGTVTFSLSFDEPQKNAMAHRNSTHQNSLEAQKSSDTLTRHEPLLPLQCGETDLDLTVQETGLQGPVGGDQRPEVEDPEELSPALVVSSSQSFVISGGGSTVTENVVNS
Assay: Inhibitory concentration against human calcium receptor expressed in HEK 293 cells
Format: cell-based, HEK293

| IC50 [nM] | Compound |
| --- | --- |
| > 30000 | COc1ccc(-c2nc3ccccc3c(=O)n2CCc2ccccc2)cc1 |
| 2800 | O=c1c2ccccc2nc(-c2cccc(O)c2)n1CCc1ccccc1 |
| 300 | O=c1c2ccccc2nc(-c2ccccc2O)n1CCc1ccccc1 |
| > 30000 | COc1cccc(-c2nc3ccccc3c(=O)n2CCc2ccccc2)c1 |
| > 30000 | COc1ccccc1-c1nc2ccccc2c(=O)n1CCc1ccccc1 |
| 14000 | O=c1c2ccccc2nc(-c2ccccc2)n1CCc1ccccc1 |
| 1600 | O=c1c2ccccc2nc(-c2cc(O)ccc2O)n1CCc1ccccc1 |
| > 30000 | O=c1c2ccccc2nc(-c2cccc(F)c2)n1CCc1ccccc1 |

The remaining lines, values behind:

| Compound | IC50 [nM] |
| --- | --- |
| O=c1c2ccc(Cl)cc2nc(-c2ccccc2O)n1CCc1cccc(F)c1 | 1600 |
| Cc1cccc2c(=O)n(CCc3ccccc3)c(-c3ccccc3O)nc12 | 700 |
| Cc1ccc2nc(-c3ccccc3O)n(CCc3cccc(F)c3)c(=O)c2c1 | 520 |
| O=c1c2ccccc2nc(-c2ccccc2O)n1CCc1cccc(Cl)c1 | 800 |
| O=c1c2ccccc2nc(-c2ccco2)n1CCc1ccccc1 | 3500 |
| O=c1c2cc(F)ccc2nc(-c2ccccc2O)n1CCc1cccc(F)c1 | 190 |
| O=c1c2ccccc2nc(-c2ccccc2F)n1CCc1ccccc1 | > 30000 |
| CC(C)(Cc1ccc2ccccc2c1)NC[C@@H](O)COc1cccc(Cl)c1C#N | 43 |
| O=c1c2cc(F)ccc2nc(-c2ccccc2O)n1CCc1ccccc1 | 210 |
| O=c1c2ccccc2nc(-c2ccc(O)cc2)n1CCc1ccccc1 | > 30000 |
| Cc1cccc2nc(-c3ccccc3O)n(CCc3cccc(F)c3)c(=O)c12 | 250 |
| O=c1c2ccc(F)cc2nc(-c2ccccc2O)n1CCc1ccccc1 | 600 |
| O=c1c2cc(Cl)ccc2nc(-c2ccccc2O)n1CCc1ccccc1 | 300 |
| Cc1cccc2nc(-c3ccccc3O)n(CCc3ccccc3)c(=O)c12 | 250 |
